Measured values as given in patent US20160115540A1, “PRODRUGS AND DRUGS” (Biogen MA Inc., priority 2013, published 2016).
Counter-ions that a name gives are not always drawn.

Test system: kidney
Assay: Transcriptional profiling on Affymetrix GeneChips, single dose, naïve mice: kidney
Assay type: in vivo, C57BL/6 mice
Conditions: for Number of differentially expressed genes identified: Kidney: Naïve, Single Dose, 100 mpk, vs Vehicle
Procedure: Treated mice were sacrificed at 2, 7, or 12 hours. Tissues (liver, spleen, kidney, jejunum, cortex, hippocampus, striatum and whole blood) were collected and analyzed by transcriptional profiling on mouse Affymetrix GeneChips.
Tissues (liver, spleen, kidney, jejunum, cortex, hippocampus, striatum and whole blood) were collected and analyzed by transcriptional profiling on mouse Affymetrix GeneChips.
Animals were exposed to CO2 and whole blood collected via cardiac puncture. Two 100 μl aliquots of whole blood were collected in 1.5 mL microcentrifuge tubes and snap frozen in liquid nitrogen. Peripheral (liver, spleen, kidney and jejunum) and CNS brain (cerebellum, hippocampus, striatum and cortex) tissues were harvested and snap frozen in liquid nitrogen, with special care taken to collect tissues of similar size and from the same location. All samples were stored at −80° C. until RNA extraction was conducted.
For RNA preparation, frozen tissues were placed in 2 mL RNAse-free 96-well blocks with 1.5 mL QIAzol Lysis Reagent (QIAgen) and a 3.2 mm stainless steel bead (BioSpec Products, Bartlesville, Okla.). Tissues were disrupted for four cycles of 45 seconds in a Mini-Beadbeater (Biospec Products). RNA was extracted in chloroform and the aqueous phase was mixed with an equal volume of 70% ethanol. Extracted RNA was applied to RNeasy 96 plates and purified by the spin method according to the manufacturer's protocol (RNeasy 96 Universal Tissue Protocol, QIAgen, Hilden Germany).
Automated sample amplifications and biotin labelings were carried out using the NuGEN Ovation RNA Amplification system V2 (Cat #3100), Ovation WB reagent (Cat #1300) and Encore Biotin module (Cat #4200) (NuGEN Technologies, Inc, San Carlos, Calif.) according to manufacturer's recommendations using an Arrayplex automated liquid handler (Beckman Coulter, Indianapolis, Ind.). Two micrograms of biotin labeled sscDNA probe were hybridized to Affymetrix GeneChip Affymetrix HT_MG-430_PM plate arrays with modified conditions as described in Allaire et al. Washing and staining of the hybridized arrays were completed as described in the GeneChip Expression analysis technical manual for HT plate arrays using the Genechip® Array Station (Affymetrix, Santa Clara, Calif.) with modifications as described in Allaire et al. The processed GeneChip® plate arrays were scanned using GeneTitan scanner (Affymetrix, Santa Clara, Calif.).
Affymetrix scans were subject to quality control (QC) measures. These tests included a visual inspection of the distribution of raw signal intensities and an assessment of RNA degradation, relative log expression (RLE), and normalized unsealed standard error (NUSE). All sample scans that passed these QC metrics were included in the analysis.
All CEL files were subjected to GC-content-based Robust Multi-array Average (GCRMA) normalization (version 2.20.0) (Irizarry R A, et al. Nucleic Acids Res 2003; 31:e15; Li C, et al. Genome Biol 2001; 2:[…]0032). Expression levels were log (base 2) transformed.
All calculations and analyses were carried out using R (version 2.11.1) and Bioconductor computational tools (Gentleman R. Springer Science+Business Media 2005).

COC(=O)/C=C/C(=O)O [MMF, monomethyl fumarate]
FC Hfe 1422645_PM_at (100MMF-vs-Veh, 12 h): 1.56
FC Ikbkg 1421209_PM_s_at (100MMF-vs-Veh, 12 h): 1.57
FC Mep1b 1418215_PM_at (100MMF-vs-Veh, 12 h): −1.55
FC Mthfd2 1419253_PM_at (100MMF-vs-Veh, 12 h): 1.65
FC Myo5a 1419754_PM_at (100MMF-vs-Veh, 12 h): −3.09
FC Nek6 1423596_PM_at (100MMF-vs-Veh, 12 h): 1.69
FC Pnkd 1418746_PM_at (100MMF-vs-Veh, 12 h): 1.51
FC Slc6a4 1417150_PM_at (100MMF-vs-Veh, 12 h): 1.58
FC Slc38a3 1418706_PM_at (100MMF-vs-Veh, 12 h): 1.81
FC Smcp 1418358_PM_at (100MMF-vs-Veh, 12 h): −2.49
FC Srxn1 (1419942_PM_at) (100MMF-vs-Veh, 12 h): 1.96
FC Tfrc 1422966_PM_a_at (100MMF-vs-Veh, 12 h): 1.51
FC Tiam2 1423186_PM_at (100MMF-vs-Veh, 12 h): 1.84
FC Txnrd1 1421529_PM_a_at (100MMF-vs-Veh, 12 h): 1.55
Number of genes, DMF Only / MMF Only (Kidney): 94
Asns (1451095_PM_at) differential expression (Kidney, 2 hr): 2.46
Cbr3 (1427912_PM_at) differential expression (Kidney, 2 hr): 2.96
Gdf15 (1418949_PM_at) differential expression (Kidney, 2 hr): 5.50
Maf (probe set 1437473_PM_at) differential expression (Kidney, 2 hr): −1.56
Mthfd2 (1419253_PM_at) differential expression (Kidney, 2 hr): 2.03
Number of differentially expressed genes identified: Kidney (2 h after last dosing): 274
Number of differentially expressed genes identified: Kidney (7 h after last dosing): 156
Number of differentially expressed genes identified: Kidney (12 h after last dosing): 151
Asns (1451095_PM_at) differential expression (kidney, 7 hr): 2.13
Cbr1 (probe set 1460196_PM_at) differential expression (kidney, 7 hr): 1.58
Cbr3 (1427912_PM_at) differential expression (kidney, 7 hr): 9.54
Cul9 (probe set 1439866_PM_at) differential expression (kidney, 7 hr): −1.52
Dbp (probe set 1418174_PM_at) differential expression (kidney, 7 hr): −1.73
Fam107a (probe set 1435918_PM_at) differential expression (kidney, 7 hr): −1.77
Frem2 (probe set 1457038_PM_at) differential expression (kidney, 7 hr): −1.66
Gdf15 (1418949_PM_at) differential expression (kidney, 7 hr): 1.98
Gpr135 (probe set 1441944_PM_s_at) differential expression (kidney, 7 hr): 1.66
Ido2 (probe set 1425778_PM_at) differential expression (kidney, 7 hr): −1.52
Il18 (probe set 1417932_PM_at) differential expression (kidney, 7 hr): −1.52
Kcnh1 (probe set 1435994_PM_at) differential expression (kidney, 7 hr): −1.61
Kif20b (probe set 1439695_PM_a_at) differential expression (kidney, 7 hr): −2.61
Mthfd2 (1419253_PM_at) differential expression (kidney, 7 hr): 1.89
Nmral1 (probe set 1430530_PM_s_at) differential expression (kidney, 7 hr): −1.52
Ppm1e (probe set 1434990_PM_at) differential expression (kidney, 7 hr): −1.53
Rab38 (probe set 1417700_PM_at) differential expression (kidney, 7 hr): −1.57
Slc48a1 (probe set 1450410_PM_a_at) differential expression (kidney, 7 hr): 1.58
Sphk2 (probe set 1426230_PM_at) differential expression (kidney, 7 hr): −1.54
Tmem86a (probe set 1428758_PM_at) differential expression (kidney, 7 hr): −1.56
Wdr90 (probe set 1426767_PM_at) differential expression (kidney, 7 hr): −1.58
Acot1 (probe set 1449065_PM_at) differential expression (kidney, 12 hr): 1.59
Acot1 /// Acot2 (probe set 1422997_PM_s_at) differential expression (kidney, 12 hr): 1.51
Acsm2 (probe set 1427224_PM_at) differential expression (kidney, 12 hr): −1.52
Aldh1a1 (probe set 1416468_PM_at) differential expression (kidney, 12 hr): 2.21
Arhgap26 (probe set 1440688_PM_at) differential expression (kidney, 12 hr): −1.57
Asns (1451095_PM_at) differential expression (kidney, 12 hr): 2.49
Atp11a (probe set 1421167_PM_at) differential expression (kidney, 12 hr): −1.62
B4galt5 (probe set 1433617_PM_s_at) differential expression (kidney, 12 hr): −1.51
C8a (probe set 1428012_PM_at) differential expression (kidney, 12 hr): −1.51
Cbr1 (probe set 1460196_PM_at) differential expression (kidney, 12 hr): 2.10
Cbr3 (1427912_PM_at) differential expression (kidney, 12 hr): 7.02
Cldn1 (probe set 1437932_PM_a_at) differential expression (kidney, 12 hr): 1.57
Dio3os (probe set 1435121_PM_at) differential expression (kidney, 12 hr): 1.60
Dpys (probe set 1436291_PM_a_at) differential expression (kidney, 12 hr): 1.51
Ep400 (probe set 1449610_PM_at) differential expression (kidney, 12 hr): −1.67
Fga (probe set 1424279_PM_at) differential expression (kidney, 12 hr): 1.79
Gbe1 (probe set 1420654_PM_a_at) differential expression (kidney, 12 hr): 1.51
Gdf15 (1418949_PM_at) differential expression (kidney, 12 hr): 2.01
Gpr19 (probe set 1421756_PM_a_at) differential expression (kidney, 12 hr): 1.50
Gpr135 (probe set 1441944_PM_s_at) differential expression (kidney, 12 hr): 1.59
Gpt (probe set 1426502_PM_s_at) differential expression (kidney, 12 hr): 1.51
Gsta2 (probe set 1421040_PM_a_at) differential expression (kidney, 12 hr): 1.61
Gstp1 (probe set 1449575_PM_a_at) differential expression (kidney, 12 hr): 1.54
Kif20b (probe set 1439695_PM_a_at) differential expression (kidney, 12 hr): −2.85
Klk1b21 (probe set 1451607_PM_at) differential expression (kidney, 12 hr): 1.57
Maf (probe set 1437473_PM_at) differential expression (kidney, 12 hr): 1.53
Mthfd2 (1419253_PM_at) differential expression (kidney, 12 hr): 1.65
Nek6 (probe set 1423596_PM_at) differential expression (kidney, 12 hr): 1.69
Nfia (probe set 1446742_PM_at) differential expression (kidney, 12 hr): −1.74
Orc4 (probe set 1431172_PM_at) differential expression (kidney, 12 hr): 1.50
Pigl (probe set 1440965_PM_at) differential expression (kidney, 12 hr): 1.52
Pnkd (probe set 1418746_PM_at) differential expression (kidney, 12 hr): 1.51
Rcor3 (probe set 1428343_PM_at) differential expression (kidney, 12 hr): −1.51
Reep6 (probe set 1430128_PM_a_at) differential expression (kidney, 12 hr): 1.51
Slc5a3 (probe set 1440227_PM_at) differential expression (kidney, 12 hr): −1.50
Slc6a4 (probe set 1417150_PM_at) differential expression (kidney, 12 hr): 1.58
Slc8a1 (probe set 1437675_PM_at) differential expression (kidney, 12 hr): −1.86
Slc38a3 (probe set 1418706_PM_at) differential expression (kidney, 12 hr): 1.81
Slc39a8 (probe set 1448482_PM_at) differential expression (kidney, 12 hr): −1.55
Slc48a1 (probe set 1450410_PM_a_at) differential expression (kidney, 12 hr): 1.53
Slco2a1 (probe set 1444242_PM_at) differential expression (kidney, 12 hr): 1.63
Smarca2 (probe set 1452333_PM_at) differential expression (kidney, 12 hr): −1.60
Tfrc (probe set 1422966_PM_a_at) differential expression (kidney, 12 hr): 1.51
Tmie (probe set 1443964_PM_at) differential expression (kidney, 12 hr): 1.65
Trim16 (probe set 1460629_PM_at) differential expression (kidney, 12 hr): 1.51
FC 1200003I10Rik /// 1200015M12Rik /// A130040M12Rik /// E430024C06Rik 1427932_PM_s_at (kidney, 100MMF-vs-Veh, 12 h): 1.54
FC 1200016E24Rik (1452418_PM_at) (kidney, 100MMF-vs-Veh, 12 h): 1.50
FC 1300002K09Rik 1453234_PM_at (kidney, 100MMF-vs-Veh, 12 h): 1.88
FC 1441333_PM_at (no gene symbol) (kidney, 100MMF-vs-Veh, 12 h): −2.46
FC 1441971_PM_at (no gene symbol) (kidney, 100MMF-vs-Veh, 12 h): 1.51
FC 1444920_PM_at (no gene symbol) (kidney, 100MMF-vs-Veh, 12 h): −1.56
FC 1447396_PM_at (no gene symbol) (kidney, 100MMF-vs-Veh, 12 h): −1.52
FC 1455722_PM_at (no gene symbol) (kidney, 100MMF-vs-Veh, 12 h): −1.53
FC 1458599_PM_at (no gene symbol) (kidney, 100MMF-vs-Veh, 12 h): 1.57
FC 1459091_PM_at (no gene symbol) (kidney, 100MMF-vs-Veh, 12 h): 2.38
FC 2010003K11Rik (1424626_PM_at) (kidney, 100MMF-vs-Veh, 12 h): 1.65
FC 2310043L19Rik (1440008_PM_at) (kidney, 100MMF-vs-Veh, 12 h): 1.86
FC 3110009E18Rik (1428023_PM_at) (kidney, 100MMF-vs-Veh, 12 h): 1.58
FC 4933427G17Rik 1431905_PM_s_at (kidney, 100MMF-vs-Veh, 12 h): 1.59
